Source: patent US11497212B2, “Substituted thiophenyl uracils, salts thereof and the use thereof as herbicidal agents” (Syngenta Crop Protection AG, priority 2017, dated 2022)

Tests used:
Format in all cases: in vivo
[1] = test system: Abutilon theophrasti; experiment: Herbicidal action post-emergence (greenhouse pot trial); conditions: application rate 80 g/ha, scored visually after about 3 weeks vs untreated controls
Procedure, shortened: (§1)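 One-leaf-stage seedlings, 2–3 weeks old, are treated on their green parts with an aqueous emulsion or suspension of the test compound (WP or EC, 0.5% additive) using 600 L/ha of water at up to 80 g/ha. About 3 weeks on, percent kill is estimated visually versus untreated plants.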

[2] = test system: Alopecurus myosuroides; experiment: as above; conditions: application rate 80 g/ha, scored visually after about 3 weeks vs untreated controls
Procedure, shortened: as §1

[3] = test system: Amaranthus retroflexus; experiment: as above; conditions: application rate 80 g/ha, scored visually after about 3 weeks vs untreated controls
Procedure, shortened: as §1

[4] = test system: Digitaria sanguinalis; experiment: as above; conditions: application rate 80 g/ha
Procedure, shortened: as §1

[5] = test system: Echinochloa crus-galli; experiment: as above; conditions: application rate 80 g/ha, scored visually after about 3 weeks vs untreated controls
Procedure, shortened: as §1

[6] = test system: Hordeum murinum; experiment: as above; conditions: application rate 80 g/ha, scored visually after about 3 weeks vs untreated controls
Procedure, shortened: as §1

[7] = test system: Lolium rigidum; experiment: as above; conditions: application rate 80 g/ha, scored visually after about 3 weeks vs untreated controls
Procedure, shortened: as §1

[8] = test system: Matricaria inodora; experiment: as above; conditions: application rate 80 g/ha, scored visually after about 3 weeks vs untreated controls
Procedure, shortened: as §1

[9] = test system: Pharbitis purpurea; experiment: as above; conditions: application rate 80 g/ha
Procedure, shortened: as §1

[10] = test system: Polygonum convolvulus; experiment: as above; conditions: application rate 80 g/ha, scored visually after about 3 weeks vs untreated controls
Procedure, shortened: as §1

[11] = test system: Setaria viridis; experiment: as above; conditions: application rate 80 g/ha, scored visually after about 3 weeks vs untreated controls
Procedure, shortened: as §1

[12] = test system: Stellaria media; experiment: as above; conditions: application rate 80 g/ha, scored visually after about 3 weeks vs untreated controls
Procedure, shortened: as §1

[13] = test system: Veronica persica; experiment: as above; conditions: application rate 80 g/ha
Procedure, shortened: as §1

[14] = test system: Viola tricolor; experiment: as above; conditions: application rate 80 g/ha
Procedure, shortened: as §1

[15] = test system: Oryza sativa; experiment: Crop compatibility post-emergence (greenhouse pot trial)
Procedure, shortened: (§2)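 Greenhouse pot trial: sandy loam, sown seeds, treatment at one-leaf stage 2–3 wk after sowing. Spray: aqueous WP/EC preparation, 0.5% additive, 600 L/ha. Readout: visual % effect after ~3 wk relative to untreated plants.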

[16] = test system: Triticum aestivum; experiment: as above
Procedure, shortened: as §2

[17] = test system: Abutilon theophrasti; experiment: Herbicidal action pre-emergence (greenhouse pot trial); conditions: application rate 320 g/ha, scored after about 3 weeks
Text: (§3) Seeds of mono- and dicotyledonous weeds and crop plants were laid out in plastic or organic plant pots and covered with soil. The compounds of the invention formulated in the form of wettable powders (WP) or emulsion concentrates (EC) were then applied to the surface of the covering soil as an aqueous suspension or emulsion with addition of 0.5% additive at a water application rate equivalent to 600 L/ha. After the treatment, the pots were placed in a greenhouse and kept under good growth conditions for the test plants. After about 3 weeks, the efficacy of the preparations was scored visually as a percentage by comparison with untreated controls. For example, 100% efficacy=plants have died, 0% efficacy=like control plants. Tables B1 to B16 below show the efficacies of selected compounds of the general formula (I) according to tables I.1 to I.60 on various harmful plants and an application rate corresponding to 320 g/ha or lower that were obtained by the aforementioned trial method.

[18] = test system: Amaranthus retroflexus; experiment: as above; conditions: application rate 320 g/ha, scored after about 3 weeks
Text: as §3

[19] = test system: Avena fatua; experiment: as above; conditions: application rate 320 g/ha
Text: as §3

[20] = test system: Digitaria sanguinalis; experiment: as above; conditions: application rate 80 g/ha
Text: as §3

[21] = test system: Echinochloa crus-galli; experiment: as above; conditions: application rate 320 g/ha, scored after about 3 weeks
Text: as §3

[22] = test system: Hordeum murinum; experiment: as above; conditions: application rate 320 g/ha
Text: as §3

[23] = test system: Lolium rigidum; experiment: as above; conditions: application rate 320 g/ha
Text: as §3

[24] = test system: Matricaria inodora; experiment: as above; conditions: application rate 320 g/ha, scored after about 3 weeks
Text: as §3

[25] = test system: Pharbitis purpurea; experiment: as above; conditions: application rate 320 g/ha
Text: as §3

[26] = test system: Setaria viridis; experiment: as above; conditions: application rate 320 g/ha, scored after about 3 weeks
Text: as §3

[27] = test system: Stellaria media; experiment: as above; conditions: application rate 320 g/ha, scored after about 3 weeks
Text: as §3

[28] = test system: Veronica persica; experiment: as above; conditions: application rate 320 g/ha
Text: as §3

[29] = test system: Viola tricolor; experiment: as above; conditions: application rate 320 g/ha, scored after about 3 weeks
Text: as §3

[30] = test system: Glycine max; experiment: Crop compatibility pre-emergence (greenhouse pot trial); conditions: effect vs untreated controls
Text: as §3, with “plants.” for “plants. Tables B1 to B16 below show the efficacies of selected compounds of the general formula (I) according to tables I.1 to I.60 on various harmful plants and an application rate corresponding to 320 g/ha or lower that were obtained by the aforementioned trial method.”
(§4) Crop compatibilities were also scored correspondingly.
(§5) The effects observed are reported here on selected crop plants by comparison with the untreated controls (values in %).

[31] = test system: Zea mays; experiment: as above; conditions: effect vs untreated controls
Text: as §3, with “plants.” for “plants. Tables B1 to B16 below show the efficacies of selected compounds of the general formula (I) according to tables I.1 to I.60 on various harmful plants and an application rate corresponding to 320 g/ha or lower that were obtained by the aforementioned trial method.”
as §4, §5

[32] = test system: Alopecurus myosuroides; experiment: Herbicidal action pre-emergence (greenhouse pot trial); conditions: application rate 320 g/ha, scored after about 3 weeks
Text: as §3

Row | Compound | Abutilon theophrasti (Efficacy in %) [1] [%] | Alopecurus myosuroides (Efficacy in %) [2] [%] | Amaranthus retroflexus (Efficacy in %) [3] [%] | Digitaria sanguinalis (Efficacy in %) [4] [%] | Echinochloa crus-galli (Efficacy in %) [5] [%] | Lolium rigidum (Efficacy in %) [7] [%] | Matricaria inodora (Efficacy in %) [8] [%] | Pharbitis purpurea (Efficacy in %) [9] [%] | Polygonum convolvulus (Efficacy in %) [10] [%] | Setaria viridis (Efficacy in %) [11] [%] | Stellaria media (Efficacy in %) [12] [%] | Veronica persica (Efficacy in %) [13] [%] | Viola tricolor (Efficacy in %) [14] [%] | Abutilon theophrasti (Efficacy in %) [17] [%] | Amaranthus retroflexus (Efficacy in %) [18] [%] | Avena fatua (Efficacy in %) [19] [%] | Digitaria sanguinalis (Efficacy in %) [20] [%] | Echinochloa crus-galli (Efficacy in %) [21] [%] | Lolium rigidum (Efficacy in %) [23] [%] | Matricaria inodora (Efficacy in %) [24] [%] | further results
1 | COCCCOC(=O)C(C)Sc1cc(-n2c(=O)cc(C(F)(F)F)n(C)c2=O)c(F)cc1Cl (centres unmarked) [I.1-26] | 100 | 80 | 100 | 100 | 100 | 90 | 100 | 100 | 100 | 100 | 100 | 100 | 100 | 100 | 100 | 80 | 100 | 100 | 90 | 100 | Hordeum murinum (Efficacy in %) [6]: 90%; Oryza sativa (Efficacy in %) ([15]; application rate 5 g/ha): 10%; Triticum aestivum (Efficacy in %) ([16]; application rate 5 g/ha): 20%; Hordeum murinum (Efficacy in %) [22]: 100%; Pharbitis purpurea (Efficacy in %) [25]: 100%; Setaria viridis (Efficacy in %) [26]: 100%; Stellaria media (Efficacy in %) [27]: 100%; Veronica persica (Efficacy in %) [28]: 100%; Viola tricolor (Efficacy in %) [29]: 100%; Glycine max (Efficacy in %) ([30]; application rate 20 g/ha): 0%; Zea mays (Efficacy in %) ([31]; application rate 80 g/ha): 10%
2 | CCOCCOC(=O)C(C)Sc1cc(-n2c(=O)cc(C(F)(F)F)n(C)c2=O)c(F)cc1Cl (centres unmarked) [I.1-2] | 100 | 90 | 100 | 100 | 100 | 100 | 100 | 100 | 100 | 100 | 100 | 100 | 100 | 100 | 100 | 90 | 100 | 100 | 90 | 100 | Triticum aestivum (Efficacy in %) ([16]; application rate 5 g/ha): 20%; Alopecurus myosuroides (Efficacy in %) [32]: 80%; Pharbitis purpurea (Efficacy in %) [25]: 100%; Setaria viridis (Efficacy in %) [26]: 100%; Stellaria media (Efficacy in %) [27]: 100%; Veronica persica (Efficacy in %) [28]: 100%; Viola tricolor (Efficacy in %) [29]: 100%; Zea mays (Efficacy in %) ([31]; application rate 20 g/ha): 0%
3 | CC1CC(COC(=O)C(C)Sc2cc(-n3c(=O)cc(C(F)(F)F)n(C)c3=O)c(F)cc2Cl)CO1 (centres unmarked) [I.1-73] | 100 | 90 | 100 | 100 | 100 | 90 | 100 | 100 | 100 | 100 | 100 | 100 | 100 | 100 | 100 | 90 | 100 | 100 | 100 | 100 | Hordeum murinum (Efficacy in %) [6]: 80%; Oryza sativa (Efficacy in %) ([15]; application rate 20 g/ha): 5%; Triticum aestivum (Efficacy in %) ([16]; application rate 80 g/ha): 20%; Hordeum murinum (Efficacy in %) [22]: 90%; Pharbitis purpurea (Efficacy in %) [25]: 100%; Setaria viridis (Efficacy in %) [26]: 100%; Stellaria media (Efficacy in %) [27]: 100%; Veronica persica (Efficacy in %) [28]: 100%; Viola tricolor (Efficacy in %) [29]: 100%; Glycine max (Efficacy in %) ([30]; application rate 80 g/ha): 0%; Zea mays (Efficacy in %) ([31]; application rate 80 g/ha): 0%
4 | Cn1c(C(F)(F)F)cc(=O)n(-c2cc(SCC(C)(C)C(=O)OCC3CCOC3)c(Cl)cc2F)c1=O (centres unmarked) [I.48-72] | 100 | 90 | 100 | 100 | 100 | 80 | 100 | 100 | 100 | 100 | 100 | 100 | 100 | 100 | 100 | 80 | 100 | 100 | 80 | 100 | Oryza sativa (Efficacy in %) ([15]; application rate 5 g/ha): 0%; Oryza sativa (Efficacy in %) ([15]; application rate 20 g/ha): 10%; Triticum aestivum (Efficacy in %) ([16]; application rate 20 g/ha): 20%; Alopecurus myosuroides (Efficacy in %) [32]: 90%; Pharbitis purpurea (Efficacy in %) [25]: 100%; Setaria viridis (Efficacy in %) [26]: 100%; Stellaria media (Efficacy in %) [27]: 100%; Veronica persica (Efficacy in %) [28]: 100%; Viola tricolor (Efficacy in %) [29]: 100%; Glycine max (Efficacy in %) ([30]; application rate 320 g/ha): 10%; Zea mays (Efficacy in %) ([31]; application rate 320 g/ha): 0%
5 | Cn1c(C(F)(F)F)cc(=O)n(-c2cc(SCC(C)(C)C(=O)OCC3CCCO3)c(Cl)cc2F)c1=O (centres unmarked) [I.48-71] | 100 | 90 | 100 | 100 | 100 | 80 | 100 | 100 | 100 | 100 | 100 | 100 | 100 | 100 | 100 | 80 | 100 | 100 | 90 | 100 | Hordeum murinum (Efficacy in %) [6]: 80%; Oryza sativa (Efficacy in %) ([15]; application rate 20 g/ha): 20%; Triticum aestivum (Efficacy in %) ([16]; application rate 20 g/ha): 20%; Alopecurus myosuroides (Efficacy in %) [32]: 100%; Pharbitis purpurea (Efficacy in %) [25]: 100%; Setaria viridis (Efficacy in %) [26]: 100%; Stellaria media (Efficacy in %) [27]: 100%; Veronica persica (Efficacy in %) [28]: 100%; Viola tricolor (Efficacy in %) [29]: 100%; Glycine max (Efficacy in %) ([30]; application rate 20 g/ha): 0%; Zea mays (Efficacy in %) ([31]; application rate 320 g/ha): 20%
